Patent US10815241B2, “Optically active azabicyclo ring derivative” (priority 2018, dated 2020)
Like-named read-outs stand apart in the source and are kept apart here.

What was measured:
MEIS1 = experiment: Test 3: inhibition of mRNA transcription, MEIS1 in MV4;11 cells; assay type: cell-based; details: for mRNA at 1 μM (% control) MEIS1: MV4;11 cells, 20 to 24 hours, relative to GAPDH; for mRNA transcription inhibition activity: statement in words, MEIS1 and HOXA9, MV4;11 cells
Excerpt: (§1) MV4; 11 cells were obtained from American Type Culture Collection (ATCC). […] The expression level of each obtained gene (MEIS1 and HOXA9) was fitted with the expression level of mRNA of GAPDH.

HOXA9 = experiment: Test 3: inhibition of mRNA transcription, HOXA9 in MV4;11 cells; assay type: cell-based; details: 20 to 24 hours, relative to GAPDH
Excerpt: as §1

[1] = biological target: hERG (human Ether-a-go-go Related Gene) (Homo sapiens (Human), UniProt Q12809); experiment: Test 4: hERG inhibition (QPatch HT, CHO cells stably expressing hERG); details: for hERG/RS4; 11: hERG IC50 divided by RS4;11 proliferation IC50
Chain of hERG (human Ether-a-go-go Related Gene) (Q12809 whole entry): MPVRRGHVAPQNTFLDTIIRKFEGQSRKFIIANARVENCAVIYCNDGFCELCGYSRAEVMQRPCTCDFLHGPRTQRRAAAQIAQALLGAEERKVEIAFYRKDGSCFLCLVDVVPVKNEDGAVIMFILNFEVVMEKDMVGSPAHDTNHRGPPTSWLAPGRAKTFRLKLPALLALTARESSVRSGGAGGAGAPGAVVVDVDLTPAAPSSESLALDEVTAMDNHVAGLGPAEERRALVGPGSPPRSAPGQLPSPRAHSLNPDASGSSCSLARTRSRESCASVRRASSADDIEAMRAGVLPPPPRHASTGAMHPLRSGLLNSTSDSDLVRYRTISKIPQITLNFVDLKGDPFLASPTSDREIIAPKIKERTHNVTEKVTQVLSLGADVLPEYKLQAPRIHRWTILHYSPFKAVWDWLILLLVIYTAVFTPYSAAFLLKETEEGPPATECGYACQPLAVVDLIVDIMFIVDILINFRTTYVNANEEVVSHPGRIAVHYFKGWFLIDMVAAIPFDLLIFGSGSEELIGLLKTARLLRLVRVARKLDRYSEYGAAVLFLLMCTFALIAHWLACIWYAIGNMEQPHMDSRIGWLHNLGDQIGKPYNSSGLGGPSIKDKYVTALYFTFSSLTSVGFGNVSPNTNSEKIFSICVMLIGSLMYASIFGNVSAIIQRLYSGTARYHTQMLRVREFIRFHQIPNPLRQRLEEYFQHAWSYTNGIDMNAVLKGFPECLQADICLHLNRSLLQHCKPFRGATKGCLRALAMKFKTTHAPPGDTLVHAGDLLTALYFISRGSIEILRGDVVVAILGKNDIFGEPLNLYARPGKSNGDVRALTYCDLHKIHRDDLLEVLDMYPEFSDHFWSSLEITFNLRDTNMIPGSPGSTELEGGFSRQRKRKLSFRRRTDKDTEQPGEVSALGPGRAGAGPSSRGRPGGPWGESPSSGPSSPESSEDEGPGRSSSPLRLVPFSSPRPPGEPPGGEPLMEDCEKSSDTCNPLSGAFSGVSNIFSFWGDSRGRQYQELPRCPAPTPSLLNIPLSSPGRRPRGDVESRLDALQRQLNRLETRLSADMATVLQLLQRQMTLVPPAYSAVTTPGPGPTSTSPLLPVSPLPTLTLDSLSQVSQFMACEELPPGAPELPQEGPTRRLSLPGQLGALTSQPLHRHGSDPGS

RS4; 11 cells = experiment: Test 2: inhibition of cell proliferation, RS4;11; assay type: cell-based; details: for IC50: RS4;11 cells, 7 days, PrestoBlue cell viability
Protocol: (§2) RS4; 11 cells were obtained from American Type Culture Collection (ATCC). […] MOLM-13 cells were separately obtained from DSMZ (Deutsche Sammlung von Mikroorganismen und Zellkulturen GmbH).
(§3) The cells were plated to a 96-well plate in 2000 cells/well, each test compound was added thereto to adjust the final concentration of DMSO to 0.1% of DMSO, and the cells were cultured for 7 days. After the cultivation, the cell viability was calculated with PrestoBlue™ Cell Viability Reagent (Invitrogen, A13261).

MOLM-13 cells = experiment: Test 2: inhibition of cell proliferation, MOLM-13; assay type: cell-based; details: 7 days, PrestoBlue cell viability
Protocol: as §2, §3

[2] = read-out: hERG inhibition IC50, hERG current, CHO cells

Row | IC50 (RS4; 11 cells; Homo sapiens) [nM] | IC50 (MOLM-13 cells; Homo sapiens) [nM] | SMILES | mRNA at 1 μM (% control) MEIS1 (MEIS1) [% control] | mRNA at 1 μM (% control) HOXA9 (HOXA9) [% control] | hERG/RS4; 11 [1] | IC50 [1] [nM] | gap between RS4; 11 proliferation IC50 and hERG current IC50 [1] | other results
1 | – | – | CC(C)N(C(=O)c1cc(F)ccc1Oc1cncnc1N1CC2(CN(C(=O)[C@H]3NC4CCC3CC4)C2)C1)C(C)C [Example 11, 2-[(4-{6-[(1R,3S,4R)-2-azabicyclo[2.2.2]octane-3-carbonyl]-2,6-diazaspiro[3.3]heptan-2-yl}pyrimidin-5-yl)oxy]-5-fluoro-N,N-di(propan-2-yl)benzamide] | 13.1 | 36.5 | >500 | – | – | mRNA transcription inhibition activity (MEIS1): showed the mRNA transcription inhibition activity; IC50 [1, 2]: > 10000 nM
2 | 870 | 810 | CC(C)N(C(=O)c1cc(F)ccc1Oc1cncnc1N1CCC2(CCN(C(=O)[C@H]3N[C@H]4CC[C@@H]3CC4)C2)C1)C(C)C (stereo partly drawn) [Example 2, 2-[(4-{7-[(1R,3S,4R)-2-Azabicyclo[2.2.2]octane-3-carbonyl]-2,7-diazaspiro[4.4]nonan-2-yl}pyrimidin-5-yl)oxy]-5-fluoro-N,N-di(propan-2-yl)benzamide] | – | – | 13.6 | 11800 | – | –
3 | – | – | C=C1C[C@@H]2CC[C@H]1[C@@H](C(=O)N1CC3(C1)CN(c1ncncc1Oc1ccc(F)cc1C(=O)N(C(C)C)C(C)C)C3)N2 [Example 7, 5-fluoro-2-[(4-{6-[(1S,3S,4R)-5-methylidene-2-azabicyclo[2.2.2]octane-3-carbonyl]-2,6-diazaspiro[3.3]heptan-2-yl}pyrimidin-5-yl)oxy]-N,N-di(propan-2-yl)benzamide] | – | – | – | – | – | mRNA transcription inhibition activity (MEIS1): showed the mRNA transcription inhibition activity
4 | 80 | 80 | C=C1C[C@H]2CC[C@@H]1N[C@@H]2C(=O)N1CC2(C1)CN(c1ncncc1Oc1ccc(F)cc1C(=O)N(C(C)C)C(C)C)C2 [Example 9, 5-fluoro-2-[(4-{6-[(1S,3S,4R)-6-methylidene-2-azabicyclo[2.2.2]octane-3-carbonyl]-2,6-diazaspiro[3.3]heptan-2-yl}pyrimidin-5-yl)oxy]-N,N-di(propan-2-yl)benzamide] | 17.0 | 41.2 | >125 | > 10000 | more than 100 fold | –
5 | < 10 | < 10 | CC(C)N(C(=O)c1cc(F)ccc1Oc1cncnc1N1CC2(CCN(C(=O)[C@H]3N[C@H]4CC[C@@H]3[C@H](F)[C@@H]4CC3CC3)CC2)C1)C(C)C [Example 19, 2-[(4-{7-[(1S,3S,4S,5R,6R)-6-(cyclopropylmethyl)-5-fluoro-2-azabicyclo[2.2.2]octane-3-carbonyl]-2,7-diazaspiro[3.5]nonan-2-yl}pyrimidin-5-yl)oxy]-5-fluoro-N,N-di(propan-2-yl)benzamide] | – | – | >690 | 6900 | more than 100 fold | –
6 | – | – | CC(C)N(C(=O)c1cc(F)ccc1Oc1cncnc1N1CC2(CN(C(=O)[C@H]3N[C@@H]4CC[C@H]3C4)C2)C1)C(C)C [Example 15, 2-[(4-{6-[(1R,3S,4S)-2-azabicyclo[2.2.1]heptane-3-carbonyl]-2,6-diazaspiro[3.3]heptan-2-yl}pyrimidin-5-yl)oxy]-5-fluoro-N,N-di(propan-2-yl)benzamide] | – | – | >6250 | > 100000 | – | –
7 | – | 40 | CC(C)N(C(=O)c1cc(F)ccc1Oc1cncnc1N1CC2(CCN(C(=O)[C@H]3N[C@@H]4CC[C@H]3C4)CC2)C1)C(C)C [Example 16, 2-[(4-{7-[(1R,3S,4S)-2-azabicyclo[2.2.1]heptane-3-carbonyl]-2,7-diazaspiro[3.5]nonan-2-yl}pyrimidin-5-yl)oxy]-5-fluoro-N,N-di(propan-2-yl)benzamide] | – | – | >3571 | > 100000 | – | –
8 | 90 | 110 | C=C1C[C@H]2CC[C@@H]1N[C@@H]2C(=O)N1CCC2(CC1)CN(c1ncncc1Oc1ccc(F)cc1C(=O)N(C(C)C)C(C)C)C2 [Example 8, 5-fluoro-2-[(4-{7-[(1S,3S,4R)-6-methylidene-2-azabicyclo[2.2.2]octane-3-carbonyl]-2,7-diazaspiro[3.5]nonan-2-yl}pyrimidin-5-yl)oxy]-N,N-di(propan-2-yl)benzamide] | 17.1 | 40.1 | 137 | 12300 | more than 100 fold | –
9 | 250 | 250 | CC(C)N(C(=O)c1cc(F)ccc1Oc1cncnc1N1CC2(CCN(C(=O)[C@H]3N[C@H]4CC[C@@H]3C(=O)C4)CC2)C1)C(C)C [Example 12, 5-fluoro-2-[(4-{7-[(1S,3S,4S)-5-oxo-2-azabicyclo[2.2.2]octane-3-carbonyl]-2,7-diazaspiro[3.5]nonan-2-yl}pyrimidin-5-yl)oxy]-N,N-di(propan-2-yl)benzamide] | – | – | >400 | > 100000 | more than 100 fold | –
10 | – | < 30 | [2H]C([2H])=C1C[C@@H]2CC[C@H]1[C@@H](C(=O)N1CCC3(CC1)CN(c1ncncc1Oc1ccc(F)cc1C(=O)N(C(C)C)C(C)C)C3)N2 [Example 20, 5-Fluoro-2-[(4-{7-[(1S,3S,4R)-5-(^2H2)methylidene-2-azabicyclo[2.2.2]octane-3-carbonyl]-2,7-diazaspiro[3.5]nonan-2-yl}pyrimidin-5-yl)oxy]-N,N-di(propan-2-yl)benzamide] | – | – | – | – | – | –
11 | 20 | 30 | C=C1C[C@@H]2CC[C@H]1[C@@H](C(=O)N1CCC3(CC1)CN(c1ncncc1Oc1ccc(F)cc1C(=O)N(C(C)C)C(C)C)C3)N2 [Example 6, 5-Fluoro-2-[(4-{7-[(1S,3S,4R)-5-methylidene-2-azabicyclo[2.2.2]octane-3-carbonyl]-2,7-diazaspiro[3.5]nonan-2-yl}pyrimidin-5-yl)oxy]-N,N-di(propan-2-yl)benzamide] | 15.1 | 39.3 | – | – | – | mRNA transcription inhibition activity (MEIS1): showed the mRNA transcription inhibition activity
12 | – | 40 | C=C1C[C@@H]2C[C@H]1[C@@H](C(=O)N1CCC3(CC1)CN(c1ncncc1Oc1ccc(F)cc1C(=O)N(C(C)C)C(C)C)C3)N2 [Example 18, 5-fluoro-2-[(4-{7-[(1S,3S,4R)-5-methylidene-2-azabicyclo[2.2.1]heptane-3-carbonyl]-2,7-diazaspiro[3.5]nonan-2-yl}pyrimidin-5-yl)oxy]-N,N-di(propan-2-yl)benzamide] | – | – | >2095 | 46100 | – | –
13 | – | – | CC(C)N(C(=O)c1cc(F)ccc1Oc1cncnc1N1CC2(CCN(C(=O)[C@H]3N[C@H]4CC[C@@H]3[C@@H](F)[C@H]4CC3CC3)CC2)C1)C(C)C [Example 14, 2-[(4-{7-[(1S,3S,4S,5S,6S)-6-(cyclropylmethyl)-5-fluoro-2-azabicyclo[2.2.2]octane-3-carbonyl]-2,7-diazaspiro[3.5]nonan-2-yl}pyrimidin-5-yl)oxy]-5-fluoro-N,N-di(propan-2-yl)benzamide] | – | – | – | – | more than 100 fold | IC50 (RS4; 11 cells): 20 nM; cell proliferation inhibition activity (RS4; 11 cells; statement in words, RS4;11 and MOLM-13 cells): potent; IC50 (MOLM-13 cells): 40 nM; IC50 [1, 2]: 11700 nM
